Results: patent US20200158737A1, “METHODS OF MEASURING UBIQUITIN-LIKE MODIFICATIONS” (Regents of the University of Minnesota, priority 2018, published 2020)
Residues, ends and D or L forms follow the SMILES beside them. *: point of attachment. Cbz = O=C(OCc1ccccc1)*

Assays:
[1] = target: T1, bovine serum albumin (BSA) (Bos taurus, UniProt P02769); assay: Ninhydrin test with BSA standard to evaluate AcGG-NHS labeling efficiency
T1 construct: purchased VWR
Protocol: To test the amine labeling efficiency of AcGG-NHS, three groups of samples were prepared—Blank: 100 μL of 9 M urea/1×PBS, Control: 0.1 mg BSA (5 μL of 20 mg/mL BSA) and 95 μL of 9 M urea/1×PBS, Test: 0.1 mg BSA (5 μL of 20 mg/mL BSA) and 95 μL of 9 M urea/1×PBS. First, samples in each groups were reduced with a final concentration of 5 mM TCEP and alkylated with a final concentration of 5 mM iodoacetamide at room temperature with shaking in dark for 30 min. Then, samples in the Test group were derivatized with AcGG-NHS following the procedure described below. Each group was followed by a reaction with ⅕ the volume of Ninhydrin reagent solution (0.35 g ninhydrin in 100 mL EtOH) at 85° C. with gentle stirring for 5 min. Absorbance of each sample was measured at 577 nm using NanoDrop spectrophotometer (Fisher).
Ten μg of proteins were dried in a Speed-Vac and resuspended in 10 μL of 9 M urea/PBS with pH adjusted to ˜8.5. AcGG-NHS stock solution was prepared by dissolving AcGG-NHS in 50% ACN/50% H2O mixture at a concentration of 100 mg/mL. One μL of AcGG-NHS stock solution was added to each sample and the mixture was vortexed for 45 min. The labeling was repeated for another two times. The reaction was quenched with 5% hydroxylamine (pH=6.0, 1.5 M) for 15 min. Each sample was diluted 6× with PBS and proteins were digested with trypsin for overnight at 37° C. […]

[2] = system: ubiquitination sites in histone-enriched fractions of 293T cells; assay: IBAQ-Ub site-specific stoichiometric analysis of known Ub sites on acid-extracted histones from 293T cells treated with DMSO or MG132; format: cell-based, human
Protocol: 293T cells were treated with 5 μM MG132 or the equal volume of DMSO for 12 hours. Histone extraction was performed as described previously (D. Shechter, et al., Nat Protoc 2007, 2, 1445-1457). Briefly, the cells were harvested by trypsin digestion. The cell pellets were washed with cold PBS and then lysed in 0.5 mL Extraction Buffer (PBS+0.5% Triton X-100 (v/v)) with protease inhibitor cocktail. After centrifuge, the supernatant was discarded and the pellet was washed with Extraction Buffer again to remove residual supernatant solution in pellet. The pellet was re-suspended in 0.4 ml 0.4 N H2SO4 for acid extraction. After overnight incubation at 4° C., the supernatant was extracted and proteins were precipitated with a final concentration of 20% TCA (v/v), followed by cold acetone wash. The protein pellet was air dried and protein concentration was measured by the Bradford assay after solubilizing the pellet with water.
Ten μg of proteins were dried in a Speed-Vac and resuspended in 10 μL of 9 M urea/PBS with pH adjusted to ˜8.5. AcGG-NHS stock solution was prepared by dissolving AcGG-NHS in 50% ACN/50% H2O mixture at a concentration of 100 mg/mL. One μL of AcGG-NHS stock solution was added to each sample and the mixture was vortexed for 45 min. The labeling was repeated for another two times. The reaction was quenched with 5% hydroxylamine (pH=6.0, 1.5 M) for 15 min. Each sample was diluted 6× with PBS and proteins were digested with trypsin for overnight at 37° C. (enzyme-to-substrate ratio of 1:100 (w/w)). When a second digestion was needed, another protease (Glu-C or Asp-N) was added (enzyme to substrate ratio of 1:100 w/w) for overnight digestion at 37° C. Following digestion, peptides were desalted and then resuspended in 10 μL of 9M urea/PBS at a pH ˜8.5. Heavy Ac—NHS stock solution was prepared by dissolving heavy Ac—NHS in ACN at a concentration of 100 mg/mL. One μL of heavy Ac—NHS stock solution was added to each sample for 45-min labeling. The labeling was repeated for two more times and the reaction was quenched with 5% hydroxylamine (pH=6.0, 1.5 M) for 15 min. The peptides were desalted with stage tips (C18) prior to LCMS analysis (J. Rappsilber, et al., Nat Protoc 2007, 2, 1896-1906).
Mass spectrometry data were collected using an Orbitrap Fusion mass spectrometer (Thermo Scientific) with a Top-12 method. Samples were resolubilized in HPLC buffer A (0.1% formic acid in water, v/v) and injected onto a self-packed reversed-phase capillary HPLC column (15 cm×100 μm, ReproSil-Pur Basic C18, 2.5 μm, Dr. Maisch GmbH). Peptides were separated by a Proxeon Easy nLC 1000 Nano-UPLC system (Thermo Scientific) at a flow rate of 200 nL/min with a 56 min gradient of 7-32% HPLC buffer B (0.1% formic acid in acetonitrile, v/v). The Orbitrap Fusion mass spectrometer (Thermo Scientific) was operated in a positive polarity mode with ion transfer tube temp of 275° C. Precursor ions were acquired in Orbitrap with a resolution 60,000 at 200 m/z and a mass range of 380-1800 m/z. Dynamic exclusion was enabled with an exclusion duration of 15 s and a mass tolerance of ±25 ppm. Fragment ions were acquired in the linear ion trap with an isolation window of 1.6 m/z and high energy collisional dissociation (HCD) of 35%.
Mass spectra were processed with MaxQuant software (version 1.5.3.12) (J. Cox, M. Mann, Nat Biotechnol 2008, 26, 1367-1372). […]

[3] = sites quantified in both DMSO and MG132 treated samples, histone-enriched chromatin fractions of 293T cells

T1 sequence (P02769 25-607): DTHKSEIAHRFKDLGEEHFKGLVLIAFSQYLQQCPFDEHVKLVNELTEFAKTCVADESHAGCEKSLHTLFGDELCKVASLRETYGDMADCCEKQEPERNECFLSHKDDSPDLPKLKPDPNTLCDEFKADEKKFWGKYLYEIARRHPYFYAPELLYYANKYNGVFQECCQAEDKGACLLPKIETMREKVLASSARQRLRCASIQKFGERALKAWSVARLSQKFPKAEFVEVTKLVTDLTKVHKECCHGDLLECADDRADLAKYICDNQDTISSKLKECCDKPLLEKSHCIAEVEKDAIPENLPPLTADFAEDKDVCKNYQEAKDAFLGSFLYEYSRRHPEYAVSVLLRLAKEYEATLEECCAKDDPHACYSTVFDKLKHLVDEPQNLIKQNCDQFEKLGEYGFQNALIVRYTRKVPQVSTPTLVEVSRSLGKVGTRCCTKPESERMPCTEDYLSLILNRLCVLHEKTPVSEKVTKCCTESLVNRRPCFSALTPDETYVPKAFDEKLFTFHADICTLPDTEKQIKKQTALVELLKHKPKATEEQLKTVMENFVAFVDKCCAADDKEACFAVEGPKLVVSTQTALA

Row | Ninhydrin reactivity on BSA after labeling ([1]; BSA after AcGG-NHS labeling, FIG. 9B-9C) | reactivity to derivatize amino groups ([1]; Ninhydrin test, BSA standard, absorbance at 577 nm) | Compound | abundance of histone H2B K117/K120 ubiquitination (Ub stoichiometry) ([2]; 293T cells, 5 μM MG132 12 hours, acid-extracted histones, stoichiometry 0.91% without MG132) | K48 polyubiquitin linkage stoichiometry on extracted histones ([2]; 293T cells, 5 μM MG132 12 hours, DMSO control 0.85%) [%] | increase of K48 ubiquitination stoichiometry versus DMSO control ([2]; 293T cells, MG132 treatment, extracted histones) | sites with decreased ubiquitination upon treatment [2, 3] | sites with increased Ub abundance upon treatment [2, 3]
1 | complete loss of Ninhydrin reactivity | high reactivity | CC(=O)NCC(=O)NCC(=O)ON1C(=O)CCC1=O [AcGG-NHS, Acetyl glycylglycine-N-hydroxysuccinamide] (HELM PEPTIDE1{[ac].G.G.[O=C1CCC(=O)N1O[*:1]]}$$$$V2.0) |  |  |  |  | 
2 |  |  | CC(C)C[C@@H](C=O)NC(=O)[C@H](CC(C)C)NC(=O)[C@H](CC(C)C)NC(=O)OCc1ccccc1 [MG132] (Cbz-Leu-Leu-Leu-aldehyde) | below the detection limit | 2.93 | more than tripled | 27 % of the sites | 72 % of the sites
